# PMC10142505, “Synthesis, Evaluation of Enzyme Inhibition and Redox Properties of Potential Dual COX-2 and 5-LOX Inhibitors” (Pharmaceuticals, 2023)
# Experiments:
# 5-LOX enzyme = target: T1, 5-LOX enzyme (Homo sapiens, UniProt P09917); experiment: Fluorometric 5-LOX inhibitor screening kit; assay type: biochemical; details: IC50 ± standard error
# T1 construct: purchased MyBioSource MBS846911
# T1 sequence (P09917 1-674): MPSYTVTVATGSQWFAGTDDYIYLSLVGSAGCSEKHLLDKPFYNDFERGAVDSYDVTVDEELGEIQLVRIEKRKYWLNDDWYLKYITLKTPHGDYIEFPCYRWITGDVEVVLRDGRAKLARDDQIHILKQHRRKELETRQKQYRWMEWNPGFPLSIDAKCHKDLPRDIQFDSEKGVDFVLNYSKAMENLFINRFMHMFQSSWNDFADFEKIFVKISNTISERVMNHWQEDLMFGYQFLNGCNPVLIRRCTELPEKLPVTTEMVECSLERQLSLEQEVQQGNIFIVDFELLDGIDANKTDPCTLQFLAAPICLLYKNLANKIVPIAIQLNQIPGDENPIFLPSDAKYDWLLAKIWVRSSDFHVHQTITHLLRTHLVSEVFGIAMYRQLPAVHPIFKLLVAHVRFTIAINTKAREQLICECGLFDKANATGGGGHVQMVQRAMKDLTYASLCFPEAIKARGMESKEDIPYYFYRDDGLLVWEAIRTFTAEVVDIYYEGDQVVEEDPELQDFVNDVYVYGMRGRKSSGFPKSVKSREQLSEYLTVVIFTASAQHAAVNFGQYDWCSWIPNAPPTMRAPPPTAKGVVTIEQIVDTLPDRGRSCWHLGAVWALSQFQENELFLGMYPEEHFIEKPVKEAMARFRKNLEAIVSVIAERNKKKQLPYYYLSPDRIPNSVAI
# Experimental: The 5-LOX inhibitory activates of synthesized compounds were tested using a fluorometric 5-LOX inhibitor screening kit (MyBioSource, San Diego, CA, USA; Catalog Number: MBS846911). This assay is based on the fluorometric detection of the intermediate generated by the 5-LOX enzyme. The experiment was conducted according to the manufacturer’s instructions. […] The tested compounds were dissolved in DMSO. Test solutions were added to corresponding wells at an amount of 2 µL out of the final 100 µL reaction volume per well. […] The volume was adjusted to 40 µL in each well by adding 38 µL of LOX Assay Buffer. The Reaction Mix (containing LOX Assay Buffer, LOX Probe and 5-LOX Enzyme) was prepared according to the instructions and 40 µL of the Reaction Mix was added into each well. The plate was incubated at room temperature for 10 min before adding the substrate diluted in the LOX Assay Buffer (1:2500 dilution factor). The final substrate solution was added at an amount of 20 µL into each well using a multi-channel pipette to initiate all the reactions at the same time. […] The EC, SC, IC and tested compounds at all concentrations were analyzed in triplicates. Two points (T1 and T2) in the linear range of the plot were chosen and corresponding fluorescence values (RFU1 and RFU2) were obtained. The slope for all samples was calculated by dividing ΔRFU (RFU2-RFU1) by the time Δt (T2−T1). The percentage of inhibition was calculated according to the equation mentioned in Section 3.3.1.
# (§1) Fluorescence measurements were performed on a BioTek Synergy LX multi-mode reader (Winooski, VT, USA).
# [1] = target: T2, COX-2 human recombinant enzyme (Homo sapiens, UniProt P35354); experiment: Fluorometric COX-2 inhibitor screening kit; assay type: biochemical; details: IC50 ± standard error
# T2 construct: purchased Abcam ab283401
# T2 sequence (P35354 18-604): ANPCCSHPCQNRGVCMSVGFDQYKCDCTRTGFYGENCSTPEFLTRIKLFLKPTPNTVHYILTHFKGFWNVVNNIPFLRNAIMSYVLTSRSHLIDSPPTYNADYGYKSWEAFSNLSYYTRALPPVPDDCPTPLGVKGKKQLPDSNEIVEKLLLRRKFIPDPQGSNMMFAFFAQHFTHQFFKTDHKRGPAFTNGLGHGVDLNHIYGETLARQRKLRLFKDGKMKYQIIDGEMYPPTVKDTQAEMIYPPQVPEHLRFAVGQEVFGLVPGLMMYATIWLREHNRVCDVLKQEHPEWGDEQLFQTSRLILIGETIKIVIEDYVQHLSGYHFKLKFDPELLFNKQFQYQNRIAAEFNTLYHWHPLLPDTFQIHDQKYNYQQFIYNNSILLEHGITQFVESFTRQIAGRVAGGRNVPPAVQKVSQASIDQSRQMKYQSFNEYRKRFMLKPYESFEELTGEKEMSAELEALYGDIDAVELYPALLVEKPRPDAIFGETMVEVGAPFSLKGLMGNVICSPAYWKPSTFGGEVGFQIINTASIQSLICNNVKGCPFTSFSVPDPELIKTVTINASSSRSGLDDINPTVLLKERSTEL
# Experimental: The COX-1 and COX-2 inhibitory activates of the synthesized compounds were tested using fluorometric COX-1 (Catalog Number: ab204698) and COX-2 (Catalog Number: ab283401) inhibitor screening kits (Abcam, United Kingdom). These assays are based on the fluorometric detection of Prostaglandin G2, generated by the COX enzyme. The experiment was conducted according to the manufacturer’s instructions. Each assay consists of a COX Assay Buffer, COX Probe (in DMSO), COX Cofactor (in DMSO), arachidonic acid and NaOH. The COX-1 inhibitor screening kit contains COX-1 ovine enzyme and COX-1 inhibitor SC560 (dissolved in DMSO), while the COX-2 inhibitor screening kit contains COX-2 human recombinant enzyme and COX-2 inhibitor Celecoxib (dissolved in DMSO). The tested compounds were dissolved in DMSO and further diluted five times with the COX Assay Buffer. The Inhibitor Control (IC) was prepared by adding 2 µL of COX-1/COX-2 inhibitor and 8 µL of COX Assay Buffer into assigned wells, while the Solvent Control (SC) was prepared by adding 2 µL of DMSO and 8 µL of COX Assay Buffer into assigned wells and the Sample (S) and Enzyme Control (EC) were prepared by adding 10 µL of diluted tested compounds or COX Assay Buffer into assigned wells. The Reaction Master Mix (COX Assay Buffer, COX Probe, Diluted COX Cofactor and COX-1/COX-2 Enzyme) was prepared according to instructions and 80 µL of the Reaction Master Mix was added into each well. Meanwhile, a diluted arachidonic acid/NaOH solution was prepared and 10 µL was added into each well using a multi-channel pipette to initiate all the reactions at the same time. […] The EC, SC, IC and tested compounds at all concentrations were analyzed in triplicates. Two points (T1 and T2) in the linear range of the plot were chosen and corresponding fluorescence values (RFU1 and RFU2) were obtained. The slope for all samples was calculated by dividing ΔRFU (RFU2-RFU1) by time Δt (T2−T1). The percentage of inhibition was calculated as follows: % Relative Inhibition=Slope of EC−Slope of S/Slope of EC∗100
# as §1
SMILES,IC50 (5-LOX enzyme),IC50 [1]
"COc1ccc2c(c1)c(CNC(=O)NO)c(C)n2C(=O)c1ccc(Cl)cc1 [Compound 1, N’-hydroxy-N-[(1-(4-chlorobenzoyl)-5-methoxy-2-methyl-3-indolyl)methyl]urea]",5.71 ± 0.15 µM,18.3 ± 2.17 µM
CC(NC(=O)NO)c1ccc(-c2ccccc2)c(F)c1 (centres unmarked) [Compound 2],1.62 ± 0.67 µM,6.72 ± 0.79 µM
"O=C(NO)NCc1ccccc1Nc1c(Cl)cccc1Cl [Compound 3, N’-hydroxy-N-[(2-(2,6-dichloroanilino)phenyl)methyl]urea]",1.73 ± 0.64 µM,5.26 ± 0.34 µM
"COC(=O)C(Cc1c[nH]cn1)NC(=O)c1cc(C(C)(C)C)c(O)c(C(C)(C)C)c1 (centres unmarked) [Compound 4, 2-(3,5-di-tert-butyl-4-hydroxy-benzoylamino)-3-(1H-imidazol-4-yl)-propionic acid methyl ester]",8.1 ± 2.12 µM,> 100 µM
"COC(=O)CNC(=O)c1cc(C(C)(C)C)c(O)c(C(C)(C)C)c1 [Compound 5, (3,5-di-tert-butyl-4-hydroxy-benzoylamino)-acetic acid methyl ester]",9.3 ± 1.87 µM,10.6 ± 0.8 µM
"C=CCNC(=O)c1cc(C(C)(C)C)c(O)c(C(C)(C)C)c1 [Compound 6, N-allyl-3,5-di-tert-butyl-4-hydroxy-benzamide]",53.8 ± 11.9 µM,6.89 ± 0.83 µM
"C#CCNC(=O)c1cc(C(C)(C)C)c(O)c(C(C)(C)C)c1 [Compound 7, 3,5-di-tert-butyl-4-hydroxy-N-prop-2-ynyl-benzamide]",12.6 ± 3.36 µM,> 100 µM
"CCOc1ccccc1NC(=O)N(C)C [Compound 8, 3-(2-ethoxy-phenyl)-1,1-dimethyl-urea]",14.5 ± 3.62 µM,> 100 µM
"CN(C)C(=O)Nc1ccccc1C(=O)O [Compound 9, 2-(3,3-dimethyl-ureido)-benzoic acid]",> 100 µM,> 100 µM
"CCOc1ccccc1NC(=O)Nc1ccc([N+](=O)[O-])cc1 [Compound 10, 1-(2-ethoxy-phenyl)-3-(4-nitro-phenyl)-urea]",13 ± 2.67 µM,> 100 µM
CC(=O)N(O)C(C)c1ccc(CC(C)C)cc1 (centres unmarked) [Compound 11],1.04 ± 0.22 µM,36.2 ± 3.08 µM
"COc1ccc2cc(C(C)N(O)C(C)=O)ccc2c1 (centres unmarked) [Compound 12, N-hydroxy-N-[1-(6-methoxy-naphthalen-2-yl)-ethyl]-acetamide]",1.29 ± 0.1 µM,83.4 ± 4.37 µM
"CC(C)(C)c1cc(C=C2SC(=S)N(N)C2=O)cc(C(C)(C)C)c1O [Compound 13, 3-amino-5-(3,5-di-tert-butyl-4-hydroxy-benzylidene)-2-thioxo-thiazolidin-4-one]",13.6 ± 3.54 µM,> 100 µM
